Paper PMC3432695 (European journal of medicinal chemistry, 2012)
Values after ≈ are worked out from the molar mass of the structure shown. Values joined by “and” are separate entries in the source; they are usually repeats but may differ in a detail not shown here. Identical values can stand only once.

Experiments:
Chemical = assay type: physicochemical; conditions: for t1/2 PBS: PBS pH 7.4, 37 °C, 2 mM
TK1 (+) L929 cells = conditions: cited from earlier work; for in vitro uptake in TK1 (+) L929 cells relative to TK1 (−) L929 cells: 24 h incubation in compound containing medium; for retention in cells: incubation continued for 12 h in compound free medium
[1] = Solubility in PBS at pH 5, pH 6 and pH 7.4; assay type: physicochemical; conditions: for solubility PBS pH 5: PBS pH 5, 37 °C; for solubility PBS pH 5 / solubility PBS pH 6 / solubility PBS pH 7.4: hydrochloride salts of 12, 15, 18, 21; for solubility PBS pH 6: PBS pH 6, 37 °C; for solubility PBS pH 7.4: PBS pH 7.4, 37 °C; for solubility at 4 h: PBS, 37 °C, thermodynamic from solid
[2] = test system: TK1 (+)- or TK1 (−) L929 tumors; conditions: intratumoral injection, subcutaneous tumors in nude mice; cited from earlier work
intracranial RG2 glioma = conditions: cited from earlier work
Stability = assay type: in vitro ADME, Bovine; conditions: for t1/2 Bovine serum: 37 °C, 2 mM; for hydrolysis rate in Bovine serum relative to rate in PBS: times faster in Bovine serum than in PBS
Stability in Bovine CSF = assay type: in vitro ADME; conditions: for t1/2 Bovine CSF: 37 °C, 2 mM
[3] = ref Song et al. 15; cited from earlier work
[4] = ref Song et al. 15; cited from earlier work; remark: listed apart in the source
[5] = cited from earlier work

## 3',5'-Di-L-glutam-5-yl-3-(5-{o-carboran-1-yl}pentan-1-yl)thymidine [Compound 19]
Chemical
  t1/2 PBS: 3.42 ± 0.10 h

## 3',5'-Di-L-valyl-3-(5-{o-carboran-1-yl}pentan-1-yl)thymidine [Compound 13]
Chemical
  t1/2 PBS: 12.91 ± 0.17 h

## 3',5'-Di-glycinyl-3-(5-{o-carboran-1-yl}pentan-1-yl)thymidine [Compound 16]
Chemical
  t1/2 PBS: 0.22 ± 0.03 h

## 3'-Glycinyl-3-(5-{o-carboran-1-yl}pentan-1-yl)thymidine [Compound 14]
Chemical
  t1/2 PBS: 1.51 ± 0.11 h

## 3'-L-Glutam-5-yl-3-(5-{o-carboran-1-yl}pentan-1-yl)thymidine [Compound 17]
Chemical
  t1/2 PBS: 26.91 ± 0.71 h

## 3'-L-Valyl-3-(5-{o-carboran-1-yl}pentan-1-yl)thymidine [Compound 11]
Chemical
  t1/2 PBS: 29.79 ± 0.42 h

## 3-(5-{o-Carboran-1-yl}pentan-1-yl)thymidine [Compound 1]
TK1 (+) L929 cells
  in vitro uptake in TK1 (+) L929 cells relative to TK1 (−) L929 cells: 5–10
  retention in cells: retained only in the former cell line
[1]
  solubility PBS pH 5: 0.003–0.005 g/L
  solubility PBS pH 6: 0.003–0.005 g/L
  solubility PBS pH 7.4: 0.003–0.005 g/L

## 3-[5-{2-(2,3-dihydroxyprop-1-yl)-o-carboran-1-yl}pentan-1-yl]thymidine [Compound 2]
[2]
  boron concentration in TK1 (+) relative to TK1 (−) L929 tumors: ~ 3 times
Intracranial RG2 glioma; intracranial injection prior to BNCT, rats with intracranial RG2 glioma
  survival times relative to rats that received BNCT without compound: about 2 times
Intracranial RG2 glioma; rat, in vivo
  pathologic alterations in rat brains: no significant pathologic alterations
TK1 (+) L929 cells
  in vitro uptake in TK1 (+) L929 cells relative to TK1 (−) L929 cells: 5–10
  retention in cells: retained only in the former cell line
[1]
  solubility PBS pH 5: 0.007–0.01 g/L
  solubility PBS pH 6: 0.007–0.01 g/L
  solubility PBS pH 7.4: 0.007–0.01 g/L

## 5'-Glycinyl-3-(5-{o-carboran-1-yl}pentan-1-yl)thymidine [Compound 15]
Stability
  t1/2 Bovine serum: 0.69 ± 0.02 h
  hydrolysis rate in Bovine serum relative to rate in PBS: did not change
Stability in Bovine CSF
  t1/2 Bovine CSF: 0.96 ± 0.04 h
[1]
  solubility PBS pH 5: 10.99 ± 0.20 g/L
  solubility PBS pH 6: 2.06 ± 0.11 g/L
  solubility PBS pH 7.4: 0.19 ± 0.01 g/L
Chemical
  t1/2 PBS: 0.70 ± 0.04 h

## 5'-Glycinyl-3-[5-(2-{2,3-dihydroxyprop-1-yl}-o-carboran-1-yl)pentan-1-yl]thymidine [Compound 21]
Stability
  t1/2 Bovine serum: 1.51 ± 0.04 h
  hydrolysis rate in Bovine serum relative to rate in PBS: 1.5 times
Stability in Bovine CSF
  t1/2 Bovine CSF: 2.11 ± 0.14 h
[1]
  solubility PBS pH 5: 11.18 ± 0.21 g/L
  solubility PBS pH 6: 3.60 ± 0.12 g/L
  solubility PBS pH 7.4: 0.62 ± 0.03 g/L
Chemical
  t1/2 PBS: 2.21 ± 0.15 h

## 5'-L-Glutam-5-yl-3-(5-{o-carboran-1-yl}pentan-1-yl)thymidine [Compound 18]
Stability
  t1/2 Bovine serum: 0.85 ± 0.12 h
  hydrolysis rate in Bovine serum relative to rate in PBS: 13.1 times
Stability in Bovine CSF
  t1/2 Bovine CSF: 1.85 ± 0.11 h
Stability in Bovine CSF; times higher in Bovine CSF than in PBS
  hydrolysis rate in CSF relative to PBS: 6 times
[1]
  solubility PBS pH 5: 1.13 g/L and 1.16 ± 0.04 g/L
  solubility PBS pH 6: 1.13 ± 0.06 g/L
  solubility PBS pH 7.4: 1.77 ± 0.08 g/L
Chemical
  t1/2 PBS: 11.16 ± 0.37 h

## 5'-L-Valyl-3-(5-{o-carboran-1-yl}pentan-1-yl)thymidine [Compound 12]
Stability
  t1/2 Bovine serum: 22.21 ± 0.52 h
  hydrolysis rate in Bovine serum relative to rate in PBS: 1.2 times
Stability in Bovine CSF
  t1/2 Bovine CSF: 25.47 ± 0.10 h
[1]; PBS pH 5, 6, 7.4
  solubility relative to compounds 15 and 21: 1–7 times
[1]
  solubility PBS pH 5: 26.30 ± 0.90 g/L
  solubility PBS pH 6: 3.70 ± 0.31 g/L
  solubility PBS pH 7.4: 1.31 ± 0.05 g/L
Chemical
  t1/2 PBS: 25.59 ± 0.61 h

## CC(C)[C@H](N)C(=O)OCCOCn1cnc2c(=O)[nH]c(N)nc21 [Compound 4, valacyclovir, reference compound]
Stability; bovine, bovine serum
  half-life at 2 mM: 6.2 ± 0.17 h
Stability
  hydrolysis rate in Bovine serum relative to rate in PBS: 2.2 times
[3]
  half-life for the chemical hydrolysis: 17.15 h
[4]
  half-life for the hydrolysis in human plasma: 5.2 h
Stability in Bovine CSF; bovine, bovine CSF
  half-life at 2 mM: 7.59 ± 0.12 h
[5]
  water solubility relative to parental nucleoside analogue (acyclovir): about 130 times
[1]; PBS pH 5, 6, 7.4
  solubility relative to 12: 1.5–3 times
[1]; pH 5, aqueous buffer
  solubility at 4 h: 72.7 ± 0.4 mg/mL (≈ 224 mM)
[1]; pH 6, aqueous buffer
  solubility at 4 h: 13.4 ± 0.26 mg/mL (≈ 41.4 mM)
[1]; pH 7.4, aqueous buffer
  solubility at 4 h: 1.91 ± 0.06 mg/mL (≈ 5.89 mM)
Chemical; PBS, pH 7.4
  half-life at 2 mM: 13.6 ± 0.49 h
